Experimental findings from ChEMBL document CHEMBL1914398, “Synthesis and evaluation of novel N-fluoropyridyl derivatives of tropane as potential PET imaging agents for the dopamine transporter” (Bioorg Med Chem Lett, 2011) are described below.

Test [1] in a line: Selectivity ratio of Ki for NET to Ki for DAT.
In test [2] the target is Sodium-dependent noradrenaline transporter (Homo sapiens, UniProt P23975). Kind of test: Displacement of [125I]-INXT from NET transfected in pig LLC-PK1 cells by radioligand competition binding assay. The test is classed as cell-based. For orientation: Loss of bound radioactivity is the signal in a displacement assay; it reports binding, not function.
Sodium-dependent noradrenaline transporter, sequence (P23975 whole entry): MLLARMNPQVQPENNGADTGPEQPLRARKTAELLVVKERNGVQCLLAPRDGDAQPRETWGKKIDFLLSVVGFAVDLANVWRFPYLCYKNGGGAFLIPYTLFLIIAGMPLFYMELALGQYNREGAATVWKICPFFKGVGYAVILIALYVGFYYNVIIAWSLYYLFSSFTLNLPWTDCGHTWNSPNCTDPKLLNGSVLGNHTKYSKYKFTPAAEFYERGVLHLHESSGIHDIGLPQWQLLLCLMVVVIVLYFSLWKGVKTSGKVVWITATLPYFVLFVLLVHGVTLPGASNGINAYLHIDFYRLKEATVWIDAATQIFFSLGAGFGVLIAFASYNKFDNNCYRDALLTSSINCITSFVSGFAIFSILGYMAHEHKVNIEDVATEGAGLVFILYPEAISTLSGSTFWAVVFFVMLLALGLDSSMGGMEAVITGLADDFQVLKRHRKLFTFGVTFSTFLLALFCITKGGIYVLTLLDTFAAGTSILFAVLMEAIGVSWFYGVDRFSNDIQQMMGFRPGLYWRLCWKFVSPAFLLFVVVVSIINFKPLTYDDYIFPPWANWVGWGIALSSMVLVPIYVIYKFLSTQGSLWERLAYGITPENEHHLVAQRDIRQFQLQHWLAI
The nature of test [3]: Selectivity ratio of Ki for SERT to Ki for DAT.
In test [4] the target is Sodium-dependent dopamine transporter (Homo sapiens, UniProt Q01959). Kind of test: Displacement of [125I]-IPT from DAT transfected in pig LLC-PK1 cells by radioligand competition binding assay. The format is cell-based.
Sodium-dependent dopamine transporter, sequence (Q01959 whole entry): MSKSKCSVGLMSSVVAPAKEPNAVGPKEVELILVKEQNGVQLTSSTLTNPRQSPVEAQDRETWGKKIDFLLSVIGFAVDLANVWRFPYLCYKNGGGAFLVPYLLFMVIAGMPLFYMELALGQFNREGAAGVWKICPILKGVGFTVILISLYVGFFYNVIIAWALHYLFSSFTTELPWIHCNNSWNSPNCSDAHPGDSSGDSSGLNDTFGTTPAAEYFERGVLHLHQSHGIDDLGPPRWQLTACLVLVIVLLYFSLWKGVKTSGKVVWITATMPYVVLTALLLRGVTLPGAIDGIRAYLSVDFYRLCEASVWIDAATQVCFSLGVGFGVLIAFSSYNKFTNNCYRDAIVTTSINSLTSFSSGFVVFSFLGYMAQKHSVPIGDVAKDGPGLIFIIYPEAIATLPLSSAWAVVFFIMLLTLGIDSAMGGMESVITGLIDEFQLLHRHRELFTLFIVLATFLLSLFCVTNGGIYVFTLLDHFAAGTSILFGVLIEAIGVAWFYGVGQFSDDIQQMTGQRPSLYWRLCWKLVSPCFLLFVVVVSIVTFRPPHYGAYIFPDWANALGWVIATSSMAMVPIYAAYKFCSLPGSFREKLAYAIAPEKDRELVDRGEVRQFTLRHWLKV
Test [5] deals with Sodium-dependent serotonin transporter (Homo sapiens, UniProt P31645). The test is described as follows: Displacement of [125I]-IDAM from SERT transfected in pig LLC-PK1 cells by radioligand competition binding assay. The test is classed as cell-based.
Sodium-dependent serotonin transporter, sequence (P31645 whole entry): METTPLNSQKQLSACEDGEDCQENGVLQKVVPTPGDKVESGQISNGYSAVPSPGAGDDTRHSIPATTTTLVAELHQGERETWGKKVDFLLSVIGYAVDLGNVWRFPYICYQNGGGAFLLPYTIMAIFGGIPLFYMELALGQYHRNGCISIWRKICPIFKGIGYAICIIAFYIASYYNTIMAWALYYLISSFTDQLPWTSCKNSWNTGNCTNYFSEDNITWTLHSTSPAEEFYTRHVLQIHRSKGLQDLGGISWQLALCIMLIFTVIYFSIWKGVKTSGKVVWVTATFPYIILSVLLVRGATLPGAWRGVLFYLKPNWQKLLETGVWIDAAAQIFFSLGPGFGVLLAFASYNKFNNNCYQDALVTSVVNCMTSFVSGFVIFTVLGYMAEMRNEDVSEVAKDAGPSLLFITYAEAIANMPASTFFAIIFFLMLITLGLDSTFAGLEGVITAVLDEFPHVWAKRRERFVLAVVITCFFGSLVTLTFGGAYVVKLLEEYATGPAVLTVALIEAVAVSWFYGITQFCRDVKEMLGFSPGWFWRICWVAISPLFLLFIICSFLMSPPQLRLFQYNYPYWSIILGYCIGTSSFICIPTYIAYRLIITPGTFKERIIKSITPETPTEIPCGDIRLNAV

Consider `CN1C2CCC1[C@@H](C(=O)Nc1ccnc(Br)c1)[C@@H](c1ccc(Cl)cc1)C2` (stereo not given in full), for which the Ratio Ki in test [1] is 147; in test [3], 125. Moreover, the Ki in test [2] was determined as 12100 nM; in test [4] it was 82.2 nM; in test [5] it was 10300 nM.
For the compound `CN1C2CCC1[C@@H](C(=O)Nc1ccc(Br)nc1)[C@@H](c1ccc(Cl)cc1)C2` (stereo not given in full), the Ratio Ki in test [1] worked out at 153; in test [3], 144. The Ki was found to be 16200 nM in test [2], 106 nM in test [4] and 15300 nM in test [5].
The matching figures for `CN1C2CCC1[C@@H](CNc1cccc(Br)n1)[C@@H](c1ccc(Cl)cc1)C2` (stereo not given in full): 5.2, 1.3, 29.1 nM, 5.6 nM and 7.4 nM.
The matching figures for `CN1C2CCC1[C@@H](CNc1ccc(Br)nc1)[C@@H](c1ccc(Cl)cc1)C2` (stereo not given in full): 2.7, 0.6, 49.1 nM, 17.9 nM and 10.5 nM.
In the same order, the values of `CN1C2CCC1[C@@H](CNc1ccnc(Br)c1)[C@@H](c1ccc(Cl)cc1)C2` (stereo not given in full) are 3.5, 1.4, 27.7 nM, 7.9 nM and 11 nM.
On to `CN1C2CCC1[C@@H](C(=O)Nc1cccc(F)n1)[C@@H](c1ccc(Cl)cc1)C2` (stereo not given in full), for which the values for the Ratio Ki in test [1] and in test [3] were 133 and 229, respectively. Further, the inhibition constant (Ki) in test [2] turned out to be 16900 nM; in test [4] it was 127 nM; in test [5], 29100 nM.

As a reminder, the Ki is a dissociation constant, usually derived from enzyme kinetics or from competition with a known ligand. Low readings indicate a stronger hold on the target, high ones a looser hold on the target.
